Results reported in PubChem BioAssay AID248 (DTP/NCI, 2004).
“And” between values parts separate entries of the source, which are not always exact repeats. Identical values can stand only once. Inconclusive results and toxic doses are left out. No stated cut-off is given here; in the data, active means T/C of 150% or more; inactive means T/C below 125%.

Tested on: L1210 leukemia ip in BDF1 mice, survival T/C
Assay: NCI In Vivo Anticancer Drug Screen. Data for tumor model L1210 Leukemia (intraperitoneal) in B6D2F1 (BDF1) mice
Settings: endpoint: mean survival time, higher = longer survival
Summary of the method: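 Each compound was tested against a transplantable tumor grown in mice. The endpoint was survival, with treated animals benchmarked against vehicle controls as a simple ratio.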

[1] = dose: 100.0 mg/kg/injection, schedule: Q04DX003 (ip), vehicle: saline with Tween-80
[2] = dose: 50.0 mg/kg/injection, schedule: Q01DX001 (ip), vehicle: saline
[3] = dose: 100.0 mg/kg/injection, schedule: Q01DX001 (ip), vehicle: saline
[4] = dose: 200.0 mg/kg/injection, schedule: Q01DX001 (ip), vehicle: saline
[5] = dose: 100.0 mg/kg/injection, schedule: Q01DX009 (ip), vehicle: saline
[6] = dose: 100.0 mg/kg/injection, schedule: Q04DX003 (ip), vehicle: saline
[7] = dose: 100.0 mg/kg/injection, schedule: Q01DX001 (ip), vehicle: Klucel (hydroxypropylcellulose) (HPC)
[8] = dose: 100.0 mg/kg/injection, schedule: Q04DX003 (ip), vehicle: Klucel (hydroxypropylcellulose) (HPC)
[9] = dose: 200.0 mg/kg/injection, schedule: Q01DX001 (ip), vehicle: Klucel (hydroxypropylcellulose) (HPC)
[10] = dose: 200.0 mg/kg/injection, schedule: Q04DX003 (ip), vehicle: Klucel (hydroxypropylcellulose) (HPC)
[11] = dose: 400.0 mg/kg/injection, schedule: Q01DX001 (ip), vehicle: Klucel (hydroxypropylcellulose) (HPC)
[12] = dose: 400.0 mg/kg/injection, schedule: Q04DX003 (ip), vehicle: Klucel (hydroxypropylcellulose) (HPC)
[13] = dose: 100.0 mg/kg/injection, schedule: Q01DX001 (ip), vehicle: carboxymethylcellulose (CMC)
[14] = dose: 200.0 mg/kg/injection, schedule: Q01DX001 (ip), vehicle: carboxymethylcellulose (CMC)
[15] = dose: 400.0 mg/kg/injection, schedule: Q01DX001 (ip), vehicle: carboxymethylcellulose (CMC)
[16] = dose: 100.0 mg/kg/injection, schedule: Q01DX009 (ip), vehicle: Klucel (hydroxypropylcellulose) (HPC)
[17] = dose: 200.0 mg/kg/injection, schedule: Q01DX009 (ip), vehicle: Klucel (hydroxypropylcellulose) (HPC)
[18] = dose: 400.0 mg/kg/injection, schedule: Q01DX009 (ip), vehicle: Klucel (hydroxypropylcellulose) (HPC)
[19] = dose: 400.0 mg/kg/injection, schedule: Q01DX001 (ip), vehicle: saline

Measured: T/C

CCCC[P+](CCCC)(CCCC)Cc1ccc([N+](=O)[O-])cc1
inactive: dose: 12.5 mg/kg/injection, schedule: Q01DX001 (ip), vehicle: Klucel (hydroxypropylcellulose) (HPC) 97 % of control | dose: 12.5 mg/kg/injection, schedule: Q04DX002 (ip), vehicle: Klucel (hydroxypropylcellulose) (HPC) 106 % of control | dose: 25.0 mg/kg/injection, schedule: Q01DX001 (ip), vehicle: Klucel (hydroxypropylcellulose) (HPC) 101 % of control | dose: 25.0 mg/kg/injection, schedule: Q01DX009 (ip), vehicle: Klucel (hydroxypropylcellulose) (HPC) 99 % of control | dose: 25.0 mg/kg/injection, schedule: Q04DX002 (ip), vehicle: Klucel (hydroxypropylcellulose) (HPC) 106 % of control | dose: 50.0 mg/kg/injection, schedule: Q01DX001 (ip), vehicle: Klucel (hydroxypropylcellulose) (HPC) 101 % of control | dose: 50.0 mg/kg/injection, schedule: Q04DX002 (ip), vehicle: Klucel (hydroxypropylcellulose) (HPC) 87 % of control

CCCc1nc2ccccc2[nH]1
inactive: [1] 96 % of control | dose: 200.0 mg/kg/injection, schedule: Q04DX003 (ip), vehicle: saline with Tween-80 100 % of control

CN1CC(C)(C)C(=O)N1
inactive: dose: 25.0 mg/kg/injection, schedule: Q01DX001 (ip), vehicle: saline 97 % of control | [2] 100 % of control | [3] 108 % of control | [4] 86 % of control

CCN(CC)CC(=O)NCC(CCN1CCCCC1)c1cccc2ccccc12 (centres undefined)
inactive: dose: 25.0 mg/kg/injection, schedule: Q04DX003 (ip), vehicle: saline 98 % of control | dose: 50.0 mg/kg/injection, schedule: Q04DX003 (ip), vehicle: saline 111 % of control | [5] 105 % of control | [6] 111 % of control

O=C(O)c1ccc(Oc2ccc([N+](=O)[O-])cc2)cc1
inactive: [7] 94 % of control | [8] 102 % of control | [9] 102 % of control | [10] 92 % of control | [11] 108 % of control | [12] 96 % of control

Nn1cnnc1N/N=C/c1ccccc1Cl
inactive: dose: 50.0 mg/kg/injection, schedule: Q01DX001 (ip), vehicle: carboxymethylcellulose (CMC) 94 % of control | [13] 96 % of control | [14] 94 % of control | [15] 90 % of control

COC(=O)C(NC(=O)C(C)NC(=O)c1cnc2ccccc2n1)C(C)C (centres undefined)
inactive: [3] 91 % of control | [4] 98 % of control

Cc1ccc(S(=O)(=O)N2CCC(O)(c3ccccc3)CC2)cc1
inactive: [16] 91 % of control | [8] 90 % of control | [17] 90 % of control | [10] 91 % of control | [18] 92 % of control | [12] 89 % of control

Cc1c(C=O)[nH]c(=O)[nH]c1=O
inactive: [3] 90 % of control | [4] 102 % of control | [19] 96 % of control

O=C(C[n+]1ccccc1Br)c1cccc([N+](=O)[O-])c1
inactive: dose: 75.0 mg/kg/injection, schedule: Q01DX001 (ip), vehicle: other 100 % of control | dose: 150.0 mg/kg/injection, schedule: Q01DX001 (ip), vehicle: other 108 % of control

O=C1c2ccccc2-c2nc3cc4ccccc4cc3nc21
inactive: [7] 98 % of control | [16] 98 % of control | [9] 88 % of control | [17] 97 % of control | [11] 97 % of control | [18] 102 % of control

CC(=O)NCCOc1ccc([N+](=O)[O-])cc1
inactive: [7] 102 % of control | [9] 102 % of control | [11] 102 % of control

O=c1cc(NCCc2ccccc2)[nH]c(=O)[nH]1
inactive: [7] 93 % of control | [9] 95 % of control | [11] 105 % of control

COc1ccc(P(=NS(=O)(=O)c2ccc(C)cc2)(c2ccc(OC)cc2)c2ccc(OC)cc2)cc1
inactive: [8] 91 % of control | [10] 96 % of control

Clc1nc(Nc2ccccc2)c2ccccc2n1
inactive: dose: 50.0 mg/kg/injection, schedule: Q01DX009 (ip), vehicle: Klucel (hydroxypropylcellulose) (HPC) 111 % of control | [16] 95 % of control | [17] 107 % of control

CCOc1cccc(Cc2c[nH]c(=S)[nH]c2=O)c1
inactive: [7] 100 % of control | [9] 105 % of control | [11] 94 % of control

COc1ccc(Cl)cc1N=Cc1cccc([N+](=O)[O-])c1
inactive: [16] 102 % of control | [17] 94 % of control | [18] 94 % of control

CCOC(=O)C1=C(C)NC(C)=C(C(=O)OCC)C1c1ccccc1[N+](=O)[O-]
inactive: dose: 6.25 mg/kg/injection, schedule: Q01DX009 (ip), vehicle: saline with Tween-80 97 % of control | dose: 12.5 mg/kg/injection, schedule: Q01DX009 (ip), vehicle: saline with Tween-80 108 % of control | dose: 25.0 mg/kg/injection, schedule: Q01DX009 (ip), vehicle: saline with Tween-80 98 % of control and 105 % of control | [1] 90 % of control

CS(=O)(=O)OCCC(=O)NCCCCNC(=O)CCOS(C)(=O)=O
inactive: [3] 104 % of control | [6] 115 % of control | [4] 117 % of control | dose: 264.0 mg/kg/injection, schedule: Q01DX001 (ip), vehicle: saline 103 % of control and 121 % of control | dose: 264.0 mg/kg/injection, schedule: Q01DX009 (ip), vehicle: saline 113 % of control | [19] 97 % of control | dose: 400.0 mg/kg/injection, schedule: Q01DX009 (ip), vehicle: saline with Tween-80 122 % of control | dose: 400.0 mg/kg/injection, schedule: Q01DX009 (ip), vehicle: saline 112 % of control

COc1ccccc1NC(=O)Nc1ccccc1F
inactive: [16] 100 % of control | [8] 89 % of control | [17] 105 % of control | [10] 89 % of control | [18] 97 % of control | [12] 97 % of control

CC(=O)Nc1ccc(Cc2ccc3[nH]c(=O)cc(C)c3c2)cc1
inactive: [13] 96 % of control | [14] 98 % of control | [15] 101 % of control

COc1ccccc1CCC=O
inactive: [2] 96 % of control | [3] 96 % of control | [4] 102 % of control | [19] 102 % of control

O=C(CC(=O)c1ccco1)c1ccco1
inactive: [3] 100 % of control | [4] 102 % of control | [19] 96 % of control

COC(=O)C(N)CCCCNC(c1ccccc1)(c1ccccc1)c1ccccc1 (centres undefined)
inactive: dose: 50.0 mg/kg/injection, schedule: Q01DX009 (ip), vehicle: saline 107 % of control | [5] 86 % of control

CC(C)NCCCN
inactive: dose: 25.0 mg/kg/injection, schedule: Q04DX002 (ip), vehicle: saline with Tween-80 98 % of control | dose: 50.0 mg/kg/injection, schedule: Q04DX002 (ip), vehicle: saline with Tween-80 98 % of control | [3] 103 % of control | dose: 100.0 mg/kg/injection, schedule: Q04DX002 (ip), vehicle: saline with Tween-80 101 % of control and 106 % of control | [4] 109 % of control

Cc1ccc(N2CSC(=S)N(c3ccc(C)cc3)C2)cc1
inactive: [16] 101 % of control | [6] 94 % of control | [17] 96 % of control | dose: 200.0 mg/kg/injection, schedule: Q04DX003 (ip), vehicle: saline 89 % of control | [18] 95 % of control | dose: 400.0 mg/kg/injection, schedule: Q04DX003 (ip), vehicle: saline 88 % of control
